# From publication PMC2737144, “Characterization of an Enantioselective Odorant Receptor in the Yellow Fever Mosquito Aedes aegypti” (PLoS ONE, 2009)
# System: Bombyx mori OR1 (BmOR1)
# Experiment: not given
# Conditions: oocyte expression system; cited from earlier work
row,SMILES,concentration range of BmOR1 response
1,CCC/C=C\C=C\CCCCCCCCCO [bombykol],micromolar range

# System: Apis mellifera OR11 (AmOR11)
# Experiment: not given
# Conditions: Xenopus oocytes; cited from earlier work
row,SMILES,concentration range of AmOR11 response
1,CC(=O)CCCCCC=CC(=O)O [9-oxo-2-decenoic acid],nanomolar range

# Molecular target: T1, AaOR8/AaOR7 protein complex (Aedes aegypti, UniProt Q16MN0)
# T1 sequence (Q16MN0 32-422): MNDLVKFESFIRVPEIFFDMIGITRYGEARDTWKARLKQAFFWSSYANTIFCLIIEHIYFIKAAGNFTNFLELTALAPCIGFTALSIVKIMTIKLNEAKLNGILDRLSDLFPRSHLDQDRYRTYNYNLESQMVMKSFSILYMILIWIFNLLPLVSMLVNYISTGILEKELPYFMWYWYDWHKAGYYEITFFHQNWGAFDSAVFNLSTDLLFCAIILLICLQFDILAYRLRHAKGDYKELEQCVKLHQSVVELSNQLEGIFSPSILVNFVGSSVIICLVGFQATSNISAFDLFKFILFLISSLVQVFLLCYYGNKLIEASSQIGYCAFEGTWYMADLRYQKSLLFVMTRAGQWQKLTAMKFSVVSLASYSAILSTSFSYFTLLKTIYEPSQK
# T1 sequence (Q178U6 1-478 partner): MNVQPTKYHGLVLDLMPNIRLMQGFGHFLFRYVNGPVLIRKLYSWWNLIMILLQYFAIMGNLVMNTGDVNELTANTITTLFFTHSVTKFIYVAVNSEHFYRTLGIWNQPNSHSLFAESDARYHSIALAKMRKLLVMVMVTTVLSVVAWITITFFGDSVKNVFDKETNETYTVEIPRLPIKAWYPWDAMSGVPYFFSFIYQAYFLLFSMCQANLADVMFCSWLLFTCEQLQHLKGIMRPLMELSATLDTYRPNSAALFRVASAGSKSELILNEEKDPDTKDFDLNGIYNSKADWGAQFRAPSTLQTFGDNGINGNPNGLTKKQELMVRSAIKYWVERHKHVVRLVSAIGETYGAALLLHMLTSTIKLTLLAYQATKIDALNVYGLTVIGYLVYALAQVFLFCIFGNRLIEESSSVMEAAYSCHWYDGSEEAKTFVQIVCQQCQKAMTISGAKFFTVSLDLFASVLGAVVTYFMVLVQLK
# Experiment: Two-microelectrode voltage clamp of Xenopus oocytes co-expressing AaOr8 and AaOr7; odorant-induced whole-cell currents
# Assay type: cell-based
# Conditions: Xenopus oocytes co-expressing AaOR8 and AaOR7, holding potential −80 mV, 8 sec odorant exposure, non-linear regression curve fit; read-out: EC50 (half maximal effective concentration) of AaOR8
# Experimental: Along with AaOr8, we co-expressed AaOr7 in Xenopus oocytes and electrophysiological responses (Fig. 1B) to each enantiomer were measured using the two-microelectrode voltage clamp technique. […] We established the concentration-response relationships for each compound (Fig. 1C) and their associated half maximal effective concentration (EC50) as a sensitivity criterion. […] Part of the response to the (S)-(+)-enantiomer may have been caused by the presence of trace amounts (1 part per thousand) of the (R)-(—)-enantiomer (see Material & Methods).
# AaOr7 and AaOr8 cRNAs were synthesized from linearized pSP64DV expression vectors (Dr. Zwiebel, Vanderbilt University) using the mMESSAGE mMACHINE SP6 kit (Ambion). Following mechanical disruption of the Xenopus ovaries, stage […] oocytes were treated for 30 min at room temperature under 150 rpm shaking with a 2 mg/mL collagenase (SIGMA, C6895) solution in OR-2 buffer (5 mM HEPES, 1 mM Na2HPO4, 82.5 mM NaCl, and 2.5 mM MgCl2 [pH 7.6]). All procedures were performed in accordance with the NIH Institutional Animal Care and Use Committee and NIH guidelines. Oocytes were subsequently washed 5 times with OR-2 buffer, 5 times with MBSH buffer (10 mM HEPES, 2.4 mM NaHCO3, […], 1 mM KCl, 0.82 mM MgSO4, 0.41 mM CaCl2 and 0.33 mM (CaNO3)2, [pH 7.6]), 5 times with MBSH supplemented with 50 µg/ML gentamycin and 5 times with Ringer's buffer (96 mM NaCl, 2 mM KCl, 5 mM MgCl2, 6H2O, 5 mM HEPES and 0.8 mM CaCl2 [pH 7.6]) supplemented with 5% heat-inactivated horse serum, 50 µg/mL tetracycline, 100 µg/mL streptomycin and 550 µg/mL sodium pyruvate. Individual oocytes were allowed to recover overnight prior to injection with 10 ng of each cRNA and were recorded 4 to 6 days post-injection.
# Whole-cell currents were recorded using the two-microelectrode voltage clamp technique, [58]. Odorants were dissolved in dimethyl sulfoxide (DMSO) at a 1∶10 ratio so that stock solutions could be made. Prior to recording, stock solutions were diluted in Ringer's solution [pH 7.6] (96 mM NaCl, 2 mM KCl, 5 mM MgCl2, 5 mM HEPES and 0.8 mM CaCl2) to the indicated concentrations before being applied to Xenopus oocytes in a RC-3Z oocyte recording chamber (Warner Instruments). Oocytes were continuously perfused by either pure Ringer's solution or exposed for 8 sec to serial dilutions of odorants dissolved in Ringer's solution. Odorant-induced currents were recorded with an OC-725C oocyte clamp (Warner Instruments) at a holding potential of −80 mV. Between stimulations, oocytes were allowed to return to their membrane resting potential by washing out the odorants using pure Ringer's solution. Data acquisition and analysis were carried out with Digidata 1440A and pCLAMP10 software (Axon Instruments).
# Statistical analyses (GraphPad Prism5 Software, Inc.) of the logEC50 means were performed using an ordinary one-way ANOVA in conjunction with the Tukey Kramer multiple comparison post test (95% confidence interval). […] In all figures, graphical results are shown as means and standard error of the mean for a minimum of six independent oocytes. EC50 values for individual compounds were extrapolated using the non-linear regression curve fit function provided in Prism5.
row,SMILES,EC50
1,C=CC(O)CCCC (stereo not drawn) [1-Hepten-3-ol],17 µM
2,C=CC(O)CCCCCC (stereo not drawn) [1-Nonen-3-ol],5.14 µM
3,C=CC(=O)CCCCC [1-Octen-3-one],23 µM
4,C=CCC(O)CCCC (stereo not drawn) [1-Octen-4-ol],39.1 µM
5,CCCCCC(O)CC (stereo not drawn) [3-Octanol],5.82 µM
6,C=C[C@H](O)CCCCC [(R)-(—)-1-octen-3-ol],0.158 µM
7,C=C[C@@H](O)CCCCC [(S)-(+)-1-octen-3-ol],17.2 µM
